# Measured values: ChEMBL document CHEMBL1201862, “PubChem BioAssay data set” (2004)
#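 Results reflect a 48-hour exposure of cells in 96-well plates to compound at five concentrations. GI50: concentration for 50% inhibition of growth.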 Activity calls are given as the source filed them. Cut-off read from the data, not from the text of the source: active = GI50 up to about 1.1 µM and inactive = higher.
# Key:
# Test in all cases: NCI-60 cell line screen, 48 h
# SW-620 = system: SW-620
# HCT-116 = system: HCT-116
# Hs-578T = system: Hs-578T
# SF-539 = system: SF-539
# NCI-H23 = system: NCI-H23
# OVCAR-5 = system: OVCAR-5
# NCI-H522 = system: NCI-H522
# PC-3 = system: PC-3
# NCI-H460 = system: NCI-H460
# CCRF-CEM = system: CCRF-CEM
# UACC-257 = system: UACC-257
# Malme-3M = system: Malme-3M
# TK-10 = system: TK-10
# OVCAR-4 = system: OVCAR-4
# OVCAR-3 = system: OVCAR-3
# EKVX = system: EKVX
# SF-295 = system: SF-295
# NCI-H226 = system: NCI-H226
# COLO 205 = system: COLO 205
# SR = system: SR
# OVCAR-8 = system: OVCAR-8
# BT-549 = system: BT-549
# A549 = system: A549
# MDA-N = system: MDA-N
# SK-MEL-5 = system: SK-MEL-5
# M14 = system: M14
# HOP-92 = system: HOP-92
# RPMI-8226 = system: RPMI-8226
# SF-268 = system: SF-268
# MDA-MB-231 = system: MDA-MB-231
# SNB-75 = system: SNB-75
# HOP-62 = system: HOP-62
# SK-OV-3 = system: SK-OV-3
# 786-0 = system: 786-0
# SN12C = system: SN12C
# HL-60 = system: HL-60
# U-251 = system: U-251
# KM12 = system: KM12
# UACC-62 = system: UACC-62
# A498 = system: A498
# CAKI-1 = system: CAKI-1
# MOLT-4 = system: MOLT-4
# DU-145 = system: DU-145
# SK-MEL-2 = system: SK-MEL-2
# K562 = system: K562
# ACHN = system: ACHN
# SK-MEL-28 = system: SK-MEL-28
# RXF 393 = system: RXF 393
# SNB-19 = system: SNB-19
# MDA-MB-435 = system: MDA-MB-435
# MCF7 = system: MCF7
# IGROV-1 = system: IGROV-1
# HCC 2998 = system: HCC 2998
# HT-29 = system: HT-29
# UO-31 = system: UO-31
# T47D = system: T47D
# HCT-15 = system: HCT-15
# NCI/ADR-RES = system: NCI/ADR-RES
# LOX IMVI = system: LOX IMVI
compound,measurement,setting,value
O=c1[nH][nH]c(=O)c2c1ccc1oc3ccccc3c12,GI50,SW-620,> 100 µM (inactive)
same,GI50,HCT-116,> 100 µM (inactive)
same,GI50,Hs-578T,> 100 µM (inactive)
same,GI50,SF-539,> 100 µM (inactive)
same,GI50,NCI-H23,> 100 µM (inactive)
same,GI50,OVCAR-5,> 100 µM (inactive)
same,GI50,NCI-H522,> 100 µM (inactive)
same,GI50,PC-3,> 100 µM (inactive)
same,GI50,NCI-H460,> 100 µM (inactive)
same,GI50,CCRF-CEM,> 100 µM (inactive)
same,GI50,UACC-257,> 100 µM (inactive)
same,GI50,Malme-3M,> 100 µM (inactive)
same,GI50,TK-10,> 100 µM (inactive)
same,GI50,OVCAR-4,> 100 µM (inactive)
same,GI50,OVCAR-3,> 100 µM (inactive)
same,GI50,EKVX,56.2 µM (inactive)
same,GI50,SF-295,> 100 µM (inactive)
same,GI50,NCI-H226,> 100 µM (inactive)
same,GI50,COLO 205,> 100 µM (inactive)
same,GI50,SR,> 100 µM (inactive)
same,GI50,OVCAR-8,> 100 µM (inactive)
same,GI50,BT-549,> 100 µM (inactive)
same,GI50,A549,> 100 µM (inactive)
same,GI50,MDA-N,> 100 µM (inactive)
same,GI50,SK-MEL-5,> 100 µM (inactive)
same,GI50,M14,> 100 µM (inactive)
same,GI50,HOP-92,> 100 µM (inactive)
same,GI50,RPMI-8226,> 100 µM (inactive)
same,GI50,SF-268,> 100 µM (inactive)
same,GI50,MDA-MB-231,> 100 µM (inactive)
same,GI50,SNB-75,> 100 µM (inactive)
same,GI50,HOP-62,> 100 µM (inactive)
same,GI50,SK-OV-3,> 100 µM (inactive)
same,GI50,786-0,> 100 µM (inactive)
same,GI50,SN12C,> 100 µM (inactive)
same,GI50,HL-60,> 100 µM (inactive)
same,GI50,U-251,> 100 µM (inactive)
same,GI50,KM12,> 100 µM (inactive)
same,GI50,UACC-62,> 100 µM (inactive)
same,GI50,A498,> 100 µM (inactive)
same,GI50,CAKI-1,45.8 µM (inactive)
same,GI50,MOLT-4,> 100 µM (inactive)
same,GI50,DU-145,> 100 µM (inactive)
same,GI50,SK-MEL-2,> 100 µM (inactive)
same,GI50,K562,> 100 µM (inactive)
same,GI50,ACHN,> 100 µM (inactive)
same,GI50,SK-MEL-28,> 100 µM (inactive)
same,GI50,RXF 393,> 100 µM (inactive)
same,GI50,SNB-19,> 100 µM (inactive)
same,GI50,MDA-MB-435,> 100 µM (inactive)
same,GI50,MCF7,> 100 µM (inactive)
same,GI50,IGROV-1,> 100 µM (inactive)
same,GI50,HCC 2998,99.3 µM (inactive)
same,GI50,HT-29,> 100 µM (inactive)
same,GI50,UO-31,> 100 µM (inactive)
same,GI50,T47D,> 100 µM (inactive)
COC(=O)[C@@H]1[C@H]2CC[C@]3(C)[C@@H](OC(C)=O)CC[C@H]3[C@@H]2CC[C@H]1C(C)=O,GI50,SW-620,> 100 µM (inactive)
same,GI50,HCT-116,> 100 µM (inactive)
same,GI50,Hs-578T,> 100 µM (inactive)
same,GI50,SF-539,> 100 µM (inactive)
same,GI50,NCI-H23,> 100 µM (inactive)
same,GI50,OVCAR-5,> 100 µM (inactive)
same,GI50,NCI-H522,> 100 µM (inactive)
same,GI50,PC-3,> 100 µM (inactive)
same,GI50,NCI-H460,> 100 µM (inactive)
same,GI50,CCRF-CEM,> 100 µM (inactive)
same,GI50,UACC-257,> 100 µM (inactive)
same,GI50,HCT-15,> 100 µM
same,GI50,Malme-3M,> 100 µM (inactive)
same,GI50,TK-10,> 100 µM (inactive)
same,GI50,OVCAR-3,> 100 µM (inactive)
same,GI50,EKVX,> 100 µM (inactive)
same,GI50,SF-295,> 100 µM (inactive)
same,GI50,NCI-H226,> 100 µM (inactive)
same,GI50,COLO 205,> 100 µM (inactive)
same,GI50,OVCAR-8,> 100 µM (inactive)
same,GI50,BT-549,> 100 µM (inactive)
same,GI50,A549,> 100 µM (inactive)
same,GI50,MDA-N,> 100 µM (inactive)
same,GI50,SK-MEL-5,> 100 µM (inactive)
same,GI50,M14,> 100 µM (inactive)
same,GI50,NCI/ADR-RES,> 100 µM (inactive)
same,GI50,HOP-92,> 100 µM (inactive)
same,GI50,RPMI-8226,> 100 µM (inactive)
same,GI50,SF-268,> 100 µM (inactive)
same,GI50,MDA-MB-231,> 100 µM (inactive)
same,GI50,SNB-75,> 100 µM (inactive)
same,GI50,HOP-62,> 100 µM (inactive)
same,GI50,SK-OV-3,> 100 µM (inactive)
same,GI50,786-0,> 100 µM (inactive)
same,GI50,SN12C,> 100 µM (inactive)
same,GI50,HL-60,> 100 µM (inactive)
same,GI50,U-251,> 100 µM (inactive)
same,GI50,KM12,> 100 µM (inactive)
same,GI50,LOX IMVI,> 100 µM (inactive)
same,GI50,UACC-62,> 100 µM (inactive)
same,GI50,A498,> 100 µM (inactive)
same,GI50,CAKI-1,> 100 µM (inactive)
same,GI50,MOLT-4,> 100 µM (inactive)
same,GI50,DU-145,> 100 µM (inactive)
same,GI50,SK-MEL-2,> 100 µM (inactive)
same,GI50,K562,> 100 µM (inactive)
same,GI50,ACHN,> 100 µM (inactive)
same,GI50,SK-MEL-28,> 100 µM (inactive)
same,GI50,RXF 393,> 100 µM (inactive)
same,GI50,SNB-19,> 100 µM (inactive)
same,GI50,MDA-MB-435,> 100 µM (inactive)
same,GI50,MCF7,> 100 µM (inactive)
same,GI50,IGROV-1,> 100 µM (inactive)
same,GI50,HCC 2998,> 100 µM (inactive)
same,GI50,HT-29,> 100 µM (inactive)
same,GI50,UO-31,> 100 µM (inactive)
same,GI50,T47D,> 100 µM (inactive)
C#Cc1cc(Br)c(OC(=O)C(C)(C)C)c(-c2cc(C#C)cc(Br)c2OC(=O)C(C)(C)C)c1,GI50,SW-620,27 µM (inactive)
same,GI50,HCT-116,21 µM (inactive)
same,GI50,Hs-578T,53.6 µM (inactive)
same,GI50,SF-539,64.6 µM (inactive)
same,GI50,NCI-H23,30.5 µM (inactive)
same,GI50,OVCAR-5,21.2 µM (inactive)
same,GI50,NCI-H522,32.5 µM (inactive)
same,GI50,PC-3,50.2 µM (inactive)
same,GI50,NCI-H460,42.5 µM (inactive)
same,GI50,CCRF-CEM,10.3 µM (inactive)
same,GI50,UACC-257,36.1 µM (inactive)
same,GI50,HCT-15,32.6 µM
same,GI50,Malme-3M,> 100 µM (inactive)
same,GI50,TK-10,> 100 µM (inactive)
same,GI50,OVCAR-4,73.1 µM (inactive)
same,GI50,OVCAR-3,80 µM (inactive)
same,GI50,EKVX,31.2 µM (inactive)
same,GI50,SF-295,30.5 µM (inactive)
same,GI50,COLO 205,31 µM (inactive)
same,GI50,OVCAR-8,65.3 µM (inactive)
same,GI50,BT-549,> 100 µM (inactive)
same,GI50,A549,31.8 µM (inactive)
same,GI50,MDA-N,31.8 µM (inactive)
same,GI50,SK-MEL-5,37.6 µM (inactive)
same,GI50,M14,43.7 µM (inactive)
same,GI50,NCI/ADR-RES,> 100 µM (inactive)
same,GI50,HOP-92,36.9 µM (inactive)
same,GI50,RPMI-8226,12.5 µM (inactive)
same,GI50,SF-268,50 µM (inactive)
same,GI50,MDA-MB-231,35.1 µM (inactive)
same,GI50,HOP-62,55.6 µM (inactive)
same,GI50,SK-OV-3,> 100 µM (inactive)
same,GI50,786-0,41.5 µM (inactive)
same,GI50,SN12C,53 µM (inactive)
same,GI50,HL-60,6.98 µM (inactive)
same,GI50,U-251,45.1 µM (inactive)
same,GI50,KM12,37.9 µM (inactive)
same,GI50,LOX IMVI,19.7 µM (inactive)
same,GI50,UACC-62,81.5 µM (inactive)
same,GI50,A498,57.7 µM (inactive)
same,GI50,CAKI-1,61.8 µM (inactive)
same,GI50,MOLT-4,23 µM (inactive)
same,GI50,DU-145,62.4 µM (inactive)
same,GI50,SK-MEL-2,49 µM (inactive)
same,GI50,K562,35.8 µM (inactive)
same,GI50,ACHN,21.4 µM (inactive)
same,GI50,SK-MEL-28,61.2 µM (inactive)
same,GI50,RXF 393,17.4 µM (inactive)
same,GI50,SNB-19,43.9 µM (inactive)
same,GI50,MDA-MB-435,45.8 µM (inactive)
same,GI50,MCF7,26.7 µM (inactive)
same,GI50,IGROV-1,76.9 µM (inactive)
same,GI50,HCC 2998,24.4 µM (inactive)
same,GI50,HT-29,22.1 µM (inactive)
same,GI50,T47D,18.3 µM (inactive)
